How the values were obtained:
[1] = target: T1, human Prostaglandin F2α receptor (hFP) (Homo sapiens, UniProt P43088); assay: In vitro functional assay 1: inhibition of Prostaglandin F2α induced IP3 synthesis in HEK/EBNA cells; type: cell-based; settings: tested on human Prostaglandin F2α; 30 nM PGF2α stimulation; read-out: EC50 value, antagonism of Prostaglandin F2α-induced IP3-synthesis
T1 construct: expressed in transfected cells; host or cells: 293-EBNA cells
Description: 1) In Vitro Functional Assay 1: Inhibition of Prostaglandin F2α Induced IP3 (Inositol Triphosphate) Synthesis in HEK/EBNA-Cells Expressing the Prostaglandin F2α Receptor
The interaction of Prostaglandin F2α with its receptor leads to IP3 synthesis, a second messenger for Ca^2+ release from sarcoplasmatic reticulum, involved in the process triggering uterine contractions. The present assay described hereinafter can be used to show the inhibition of the Prostaglandin F2α/Prostaglandin F2α receptor mediated IP3 synthesis by test compounds of formula (I).
293-EBNA cells and pCEP4 vector were purchased from Invitrogen; Fetal Bovine Serum from Cansera; Hygromycin B from Roche Molecular Biochemicals; DMEM-F12 medium, L-Glutamine from Life Technologies Inc.; [^3H] Inositol from Perkin Elmer Life Sciences; Prostaglandin F2α (PGF2α) from Sigma, AG1-X8 chromatography columns from BioRad, 96 well black/white plates from Corning Inc. […]
In the course of the three above mentioned experiments, the reaction was stopped by addition of 1 ml of stop solution (2.4% perchloric acid) for 10 min. […] The IP3 to be quantified were eluted with 3 ml elution buffer (1M ammonium formate, 0.1 M formic acid) and radioactivity was counted on a Beckman LS6000TA scintillation counter to measure the amount of phosphorylated [^3H] inositol.

[2] = target: T2, human Prostaglandin F2α receptor (Homo sapiens, UniProt P43088); assay: In vitro functional assay 2: inhibition of Prostaglandin F2α induced Ca2+-mobilization in HEK EBNA cells (FLIPR); type: cell-based; set-up: expressed in transfected cells; host or cells: HEK EBNA cells; settings: HEK EBNA cells expressing the human Prostaglandin F2α receptor
T2 sequence (P43088 whole entry): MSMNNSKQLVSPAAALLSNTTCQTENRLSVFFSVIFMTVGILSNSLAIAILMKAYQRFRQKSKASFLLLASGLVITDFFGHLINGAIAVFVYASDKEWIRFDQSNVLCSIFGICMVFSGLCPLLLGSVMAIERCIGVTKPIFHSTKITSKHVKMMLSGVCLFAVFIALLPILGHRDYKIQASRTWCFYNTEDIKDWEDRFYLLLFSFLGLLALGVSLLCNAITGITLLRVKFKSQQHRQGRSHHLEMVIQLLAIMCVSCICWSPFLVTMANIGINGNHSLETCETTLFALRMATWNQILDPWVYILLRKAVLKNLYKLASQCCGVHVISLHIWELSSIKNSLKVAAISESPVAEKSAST
Method: 2) In Vitro Functional Assay 2: Inhibition of Prostaglandin F2α Induced Ca^2+-Mobilization in HEK/EBNA-Cell Expressing the Prostaglandin F2α Receptor, as Measured by FLIPR® (Fluorimetric Imaging Plate Reader).
HEK EBNA cells were seeded at 60000 cells/well in a Poly-L-Lysine precoated black/white bottom 96 well plate. 24 hours later cells were loaded with […] Fluo-4 in DMEM-F12 without fetal calf serum for 1-2 hours at 37° C. For Prostaglandin F2α dose response or agonist activity measurement of compounds—after a wash with FLIPR buffer (10 mM Hepes, 145 mM NaCl, 5 mM KCl, 1 mM MgCl2, 10 mM glucose, pH 7.4)—cells were stimulated with increasing concentration of Prostaglandin F2α or test compounds of formulae (I), (II) and (III).
Calcium mobilisation was then measured on the FLIPR for 4 min. For IC50 determination of the molecules, increasing concentrations of test compounds were added to the cells 30 min prior to the washing step. After the wash with FLIPR buffer, increasing concentrations of test compounds were added to the cells in FLIPR buffer and calcium mobilisation was measured for 1 min. Then the cells were stimulated with a concentration of 2 times the EC50 of Prostaglandin F2α and calcium mobilisation was measured for 4 min.

[3] = target: T2, human Prostaglandin F2α receptor; assay: In vitro competition binding assay with Scintillation Proximity Assay (SPA); set-up: Human Prostaglandin F2α receptor (full-length cDNA) was subcloned into the pCEP4 (Invitrogen) vector; expressed in transfected cells; host or cells: HEK 293 EBNA cells (membrane preparation); settings: Prostaglandin F2α as radioligand, membranes of HEK 293 EBNA cells, read-out: Binding affinity for human Prostaglandin F2α receptor Ki
Description: In vitro competition binding assay with Scintillating Proximity Assay (SPA) (see Pharmaceutical Manufacturing International, 1992, p. 49-53 by Cook, N. D. et al)
This assay allows to determine the binding affinity of the test compounds of formula (II) for the human Prostaglandin F2α receptor
Human Prostaglandin F2α receptor (full-length cDNA) was subcloned into the pCEP4 (Invitrogen) vector and transfected together with the hygromycin resistance gene into HEK 293 EBNA cells by Calcium-phosphate co-precipitation method. Antibiotic resistant cells were grown under constant selection pressure in DMEM/F-12 medium supplemented with 2% fetal calf serum, 4 mM L-Glutamine and 8 ml/l Insulin-Transferrin-Selenium-mix (all Invitrogen) and 300 μg/ml hygromycin at 37° C. in a humidified atmosphere of 5% CO2 in air. At 48 h before harvesting, receptor expression was enhanced by adding 5 mM of Na-butyrate. Cells were washed twice with phosphate buffer saline, harvested and pelleted by centrifugation.
Cell pellet was lysed by Dounce homogenisation in 250 mM sucrose, 25 mM Tris-HCl pH 7.5, 10 mM MgCl2, 1 mM EDTA containing proteases inhibitors according to the manufacturer (Boehringer Mannheim) at 4° C. The lysate was centrifuged at 1000 g, 4° C. for 10 min and the supernatant was centrifuged at 160000 g, 4° C. for 60 min. […]
In vitro competition binding with Scintillation proximity assay (SPA) was performed in Corning NBS 96 wells plates. Briefly, 100 μl of binding buffer containing 15 to 30 μg of purified membranes, 4 mg/ml of wheat-germ agglutinin (WGA) SPA beads and 1 to 2 nM of ^3H PGF2-alpha (determined by Scatchard analysis) in 1% DMSO was incubated for 2 hours at room temperature. Non-specific binding was determined in the presence of 1 μM of non-radioactive Prostaglandin F2α. […] The radioactivity was counted on a Microbeta plate counter and the binding data were analysed using the iterative, non-linear, curve-fitting program, “Prism” (GraphPad Software, Inc).

[4] = system: Spontaneous uterine contractions in late-term pregnant rats; assay: In vivo assay: reduction of spontaneous uterine contractions in late-term pregnant rats; set-up: species or system rat; settings: i.v. route (infusion over 10 minutes), dose of 3 mg/kg/min, anesthetised late-term pregnant Sprague Dawley rats, AUC of intra-luminal uterine pressure vs basal
Description: 3) In Vivo Assay: Reduction of Uterine Contractile Activity in Rats
Spontaneous Uterine Contractions in Late-Term Pregnant Rats:
Late-term pregnant (19-21 days of gestation) Sprague Dawley female rats (Charles River, Calco, Italy) weighing 350-400 g were anesthetised with urethane (1.05 g/kg, i.p.) and placed on a homeothermic operating table. The trachea was isolated and cannulated with a suitable polyethylene (PE) tubing. A midline incision at the hypogastrium level was made, one pregnant uterine horn exposed and its tubal end closed (near the ovary) by a ligature with surgical silk. […]
The spontaneous contractile response of the uterus was quantified by evaluating the area under the curve (AUC) of the changes in the intra-luminal uterine pressure over time (by Chart V4.04 for Windows software, PowerLab AD Instruments, Castle Hill, Australia). The effect of the test compound on the spontaneous uterine contraction was evaluated as the percent variation of the AUC calculated in a 10-min interval following the administration of each dose of test compound as compared to the AUC in a 10-min interval before the administration of the first dose of test compound (basal value). When possible, a dose-response curve (of peak effect) was plotted and the relative ED50 value calculated (by S-Plus 2000 v. 4.6 statistical software, Mathsoft, Inc. Seattle, Wash., USA).

T1 sequence (P43088 whole entry): as above

| Molecule | IC50 [2] [nM] | Ki [3] [nM] | other results |
| --- | --- | --- | --- |
| C=CCNC(=O)[C@H]1CN(S(=O)(=O)c2ccc(C(C)(C)C)cc2)CCN1S(=O)(=O)c1cccc2cccnc12.Cl | – | – | melting point: 126 to 129 °C |
| C=CCNC(=O)[C@@H]1CN(S(=O)(=O)c2ccc(C(C)(C)C)cc2)CCN1S(=O)(=O)c1cccc2cccnc12 [Example 8, (2S)-4-[(4-tert-butylphenyl)sulfonyl]-N-Drop-2-enyl-1-(quinolin-8-ylsulfonyl)piperazine-2-carboxamide] | – | – | EC50 [1]: 24 nM |
| (3S)-4-(3-chlorobenzoyl)-N˜1˜-(3,4-dichlorophenyl)-N˜3˜-[(1S)-2,3-dihydro-1H-inden-1-yl]piperazine-1,3-dicarboxamide [Example 21] | 495 | 816 | – |
| C=CCNC(=O)c1cc(C(C)(C)C)ccc1S(=O)(=O)c1cccc2cccnc12 [[5-(tert-butyl)-2-(8-quinolylsulfonyl)phenyl]-N-prop-2-enylcarboxamide] | – | – | inhibition of uterine contractions [4]: 56.1% |
| C=CCNC(=O)[C@@H]1CN(S(=O)(=O)c2ccc(C(C)(C)C)cc2)CCN1S(=O)(=O)c1cccc2cccnc12 [drawing 66, (2S)-4-[(4-tert-butylphenyl)-sulfonyl]-N-prop-2-enyl-1-(quinolin-8-yl-sulfonyl)piperazine-2-carboxamide] | – | 125 | – |
| CN(CC(O)c1ccccc1)C(=O)[C@H]1CN(C(=O)Nc2ccc(Oc3ccccc3)cc2)CCN1S(=O)(=O)c1ccccc1 (stereo partly drawn) [Example 16, (3R)—N˜3˜-(2-hydroxy-2-phenylethyl)-N˜3˜-methyl-N˜1˜-(4-phenoxy-phenyl)-4-(phenylsulfonyl)piperazine-1,3-dicarboxamide] | 4750 | 1150 | – |
